{"source": "BindingDB's records for patent WO2022098806", "about": "(MERCK SHARP & DOHME LLC, 2022)"}
{"biological_target": "Mitogen-activated protein kinase kinase kinase kinase 1 (Homo sapiens, UniProt Q92918)", "sequence (Q92918 whole entry)": "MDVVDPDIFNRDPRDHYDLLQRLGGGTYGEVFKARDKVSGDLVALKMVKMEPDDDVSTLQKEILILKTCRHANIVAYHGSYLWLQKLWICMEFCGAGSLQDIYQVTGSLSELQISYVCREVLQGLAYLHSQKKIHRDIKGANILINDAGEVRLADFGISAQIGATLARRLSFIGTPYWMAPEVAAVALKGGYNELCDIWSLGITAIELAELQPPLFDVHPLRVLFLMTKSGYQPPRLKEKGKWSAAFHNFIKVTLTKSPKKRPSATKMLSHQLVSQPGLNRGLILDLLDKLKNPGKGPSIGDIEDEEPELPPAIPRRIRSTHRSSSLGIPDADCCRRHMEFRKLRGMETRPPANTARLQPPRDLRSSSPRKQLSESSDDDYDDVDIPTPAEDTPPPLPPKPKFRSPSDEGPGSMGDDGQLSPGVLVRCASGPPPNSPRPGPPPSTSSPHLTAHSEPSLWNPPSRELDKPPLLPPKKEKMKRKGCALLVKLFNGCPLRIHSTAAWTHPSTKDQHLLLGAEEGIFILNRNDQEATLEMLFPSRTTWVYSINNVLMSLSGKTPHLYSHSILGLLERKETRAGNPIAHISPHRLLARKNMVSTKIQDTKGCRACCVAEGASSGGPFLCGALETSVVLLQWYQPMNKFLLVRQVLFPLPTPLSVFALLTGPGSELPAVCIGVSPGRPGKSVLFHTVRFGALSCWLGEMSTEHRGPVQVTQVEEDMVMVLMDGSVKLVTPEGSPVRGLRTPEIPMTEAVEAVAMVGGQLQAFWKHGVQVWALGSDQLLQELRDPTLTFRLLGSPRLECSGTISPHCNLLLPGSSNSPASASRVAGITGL", "assay": "HPK1-SLP76 TR-FRET ASSAY", "units": {"IC50": "nM"}}
{"smiles": "COc1cc2c(cc1Nc1ncc3ccc(-c4cncc5cccnc45)cc3n1)CN(C)CC2", "note": "[WO2022098806, Compound 1-24]", "IC50": 10}
{"smiles": "COc1cc2c(cc1Nc1ncc3ccc(-c4cnn(C(F)F)c4)cc3n1)CN(C)CC2", "note": "[WO2022098806, Compound 1-26]", "IC50": 11}
{"smiles": "COc1cc2c(cc1Nc1ncc3ccc(-c4cncc(NS(C)(=O)=O)c4)cc3n1)CNCC2", "note": "[WO2022098806, Compound 1-36]", "IC50": 183}
{"smiles": "COc1cc2c(cc1Nc1ncc3ccc(-c4cnccc4Cl)cc3n1)CNCC2", "note": "[WO2022098806, Compound 1-37]", "IC50": 28}
{"smiles": "COc1cc2c(cc1Nc1ncc3ccc(-c4cncc(N5CCOCC5)c4)cc3n1)CNCC2", "note": "[WO2022098806, Compound 1-42]", "IC50": 39}
{"smiles": "CCCC(=O)Nc1cncc(-c2ccc3cnc(Nc4cc5c(cc4OC)CCNC5)nc3c2)c1", "note": "[WO2022098806, Compound 1-52]", "IC50": 11}
{"smiles": "COc1cc2c(cc1Nc1ncc3ccc(-c4cccc(CO)c4)cc3n1)CNCC2", "note": "[WO2022098806, Compound 1-60]", "IC50": 20}
{"smiles": "COc1cc2c(cc1Nc1ncc3ccc(-c4cccc(S(=O)(=O)N5CCOCC5)c4)cc3n1)CNCC2", "note": "[WO2022098806, Compound 1-77]", "IC50": 25}
{"smiles": "COc1cc2c(cc1Nc1ncc3ccc(-c4cccc(S(=O)(=O)N5CCCCC5)c4)cc3n1)CNCC2", "note": "[WO2022098806, Compound 1-82]", "IC50": 15}
{"smiles": "COc1cc2c(cc1Nc1ncc3ccc(-c4cccc(NCC(C)=O)c4)cc3n1)CN(C)CC2", "note": "[WO2022098806, Compound 1-98]", "IC50": 203}
{"smiles": "COc1cc2c(cc1Nc1ncc3ccc(-c4cccc(C5CCC(=O)N5)c4)cc3n1)CN(C)CC2", "note": "(stereo not drawn) [WO2022098806, Compound 1-99]", "IC50": 120}
{"smiles": "COc1cc2c(cc1Nc1ncc3ccc(-c4cnn(CC(C)O)c4)cc3n1)CN(C)CC2", "note": "(stereo not drawn) [WO2022098806, Compound 1-102]", "IC50": 22}
{"smiles": "Cc1c(-c2cc3nc(Nc4ccc5c(c4)CN(C)CC5)ncc3cc2F)cnc2c1NCCO2", "note": "[WO2022098806, Compound 1-114]", "IC50": 0.09}
{"smiles": "Cc1c(-c2cc3nc(Nc4ccc(CS(C)(=O)=O)cc4)ncc3cc2F)cnc2c1NCCO2", "note": "[WO2022098806, Compound 1-115]", "IC50": 0.05}
{"smiles": "CNC(=O)[C@@H](C)c1ccc(Nc2ncc3cc(F)c(-c4cnc5c(c4C)NCCO5)cc3n2)cc1", "note": "[WO2022098806, Compound 1-116]", "IC50": 0.22}
{"smiles": "CNC(=O)[C@H](C)c1ccc(Nc2ncc3cc(F)c(-c4cnc5c(c4C)NCCO5)cc3n2)cc1", "note": "[WO2022098806, Compound 1-117]", "IC50": 0.07}
{"smiles": "CNC(=O)[C@@H]1CCc2cc(Nc3ncc4cc(F)c(-c5cnc6c(c5C)NCCO6)cc4n3)ccc21", "note": "[WO2022098806, Compound 1-118]", "IC50": 0.04}
{"smiles": "CNC(=O)[C@H]1CCc2cc(Nc3ncc4cc(F)c(-c5cnc6c(c5C)NCCO6)cc4n3)ccc21", "note": "[WO2022098806, Compound 1-119]", "IC50": 1.17}
{"smiles": "CNC(=O)C1(c2ccc(Nc3ncc4cc(F)c(-c5cnc6c(c5C)NCCO6)cc4n3)cc2)CCC1", "note": "[WO2022098806, Compound 1-121]", "IC50": 0.26}
{"smiles": "Cc1c(-c2cc3nc(Nc4ccc([C@H](C)S(C)(=O)=O)cc4)ncc3cc2F)cnc2c1NCCO2", "note": "[WO2022098806, Compound 1-124]", "IC50": 0.04}
{"smiles": "Cc1c(-c2cc3nc(Nc4ccc([C@@H]5CCN(C)C5=O)cc4)ncc3cc2F)cnc2c1NCCO2", "note": "[WO2022098806, Compound 1-125]", "IC50": 0.06}
{"smiles": "Cc1c(-c2cc3nc(Nc4ccc([C@@H](C)S(C)(=O)=O)cc4)ncc3cc2F)cnc2c1NCCO2", "note": "[WO2022098806, Compound 1-126]", "IC50": 0.68}
{"smiles": "Cc1c(-c2cc3nc(Nc4ccc([C@H]5CCN(C)C5=O)cc4)ncc3cc2F)cnc2c1NCCO2", "note": "[WO2022098806, Compound 1-127]", "IC50": 0.95}
{"smiles": "Cc1c(-c2cc3nc(Nc4ccc(CS(=O)(=O)C(C)C)cc4)ncc3cc2F)cnc2c1NCCO2", "note": "[WO2022098806, Compound 1-128]", "IC50": 0.08}
{"smiles": "Cc1c(-c2ccc3cnc(Nc4ccc(CS(=O)(=O)C(C)C)cc4)nc3c2)cnc2c1NCCO2", "note": "[WO2022098806, Compound 1-129]", "IC50": 0.09}
{"smiles": "CNC(=O)Cc1ccc(Nc2ncc3cc(F)c(-c4cnc5c(c4C)NCCO5)cc3n2)cc1", "note": "[WO2022098806, Compound 1-130]", "IC50": 0.07}
{"smiles": "Cc1c(-c2cc3nc(Nc4ccc(CC(N)=O)cc4)ncc3cc2F)cnc2c1NCCO2", "note": "[WO2022098806, Compound 1-131]", "IC50": 0.16}
{"smiles": "Cc1c(-c2cc3nc(Nc4ccc(CC(=O)N(C)C)cc4)ncc3cc2F)cnc2c1NCCO2", "note": "[WO2022098806, Compound 1-132]", "IC50": 0.13}
{"smiles": "Cc1c(-c2cc3nc(Nc4ccc(CC(=O)N5CCOCC5)cc4)ncc3cc2F)cnc2c1NCCO2", "note": "[WO2022098806, Compound 1-133]", "IC50": 0.08}
{"smiles": "CCS(=O)(=O)Cc1ccc(Nc2ncc3ccc(-c4cnc5c(c4C)NCCO5)cc3n2)cc1", "note": "[WO2022098806, Compound 1-134]", "IC50": 0.04}
{"smiles": "COc1cc2c(cc1Nc1ncc3c(N)c(F)c(-c4cnc5c(c4C)NCCO5)cc3n1)CN(C)CC2", "note": "[WO2022098806, Compound 2-2]", "IC50": 0.09}
{"smiles": "CC(=O)N1CCCc2cc(Nc3ncc4c(N)c(F)c(-c5cnc6c(c5C)NCCO6)cc4n3)ccc21", "note": "[WO2022098806, Compound 2-7]", "IC50": 0.11}
{"smiles": "CC(=O)N[C@@H]1CCc2cc(Nc3ncc4c(N)c(F)c(-c5cnc6c(c5C)NCCO6)cc4n3)ccc21", "note": "[WO2022098806, Compound 2-10]", "IC50": 0.12}
{"smiles": "CC(=O)N[C@H]1CCc2cc(Nc3ncc4c(N)c(F)c(-c5cnc6c(c5C)NCCO6)cc4n3)ccc21", "note": "[WO2022098806, Compound 2-11]", "IC50": 0.08}
{"smiles": "CC(=O)N1CCc2ccc(Nc3ncc4c(N)c(F)c(-c5cnc6c(c5C)NCCO6)cc4n3)cc2C1", "note": "[WO2022098806, Compound 2-12]", "IC50": 865}
{"smiles": "Cc1c(-c2cc3nc(Nc4cccc(S(C)(=O)=O)c4)ncc3c(N)c2F)cnc2c1NCCO2", "note": "[WO2022098806, Compound 2-14]", "IC50": 0.08}
{"smiles": "CC(=O)Nc1ccc(Nc2ncc3c(N)c(F)c(-c4cnc5c(c4C)NCCO5)cc3n2)cc1", "note": "[WO2022098806, Compound 2-15]", "IC50": 0.07}
{"smiles": "Cc1c(-c2cc3nc(Nc4ccc(NS(C)(=O)=O)cc4)ncc3c(N)c2F)cnc2c1NCCO2", "note": "[WO2022098806, Compound 2-16]", "IC50": 0.09}
{"smiles": "Cc1c(-c2cc3nc(Nc4ccc(S(C)(=O)=O)cc4)ncc3c(N)c2F)cnc2c1NCCO2", "note": "[WO2022098806, Compound 2-17]", "IC50": 0.09}
{"smiles": "CNC(=O)c1ccc(Nc2ncc3c(N)c(F)c(-c4cnc5c(c4C)NCCO5)cc3n2)cc1", "note": "[WO2022098806, Compound 2-23]", "IC50": 0.05}
{"smiles": "Cc1c(-c2cc3nc(Nc4ccccc4)ncc3c(N)c2F)cnc2c1NCCO2", "note": "[WO2022098806, Compound 2-25]", "IC50": 0.27}
{"smiles": "Cc1c(-c2cc3nc(Nc4ccccc4C4CC4)ncc3c(N)c2F)cnc2c1NCCO2", "note": "[WO2022098806, Compound 2-26]", "IC50": 11}
{"smiles": "COc1ncccc1Nc1ncc2c(N)c(F)c(-c3cnc4c(c3C)NCCO4)cc2n1", "note": "[WO2022098806, Compound 2-27]", "IC50": 0.12}
{"smiles": "CC(=O)N1CCC[C@@H]1c1ccc(Nc2ncc3c(N)c(F)c(-c4cnc5c(c4C)NCCO5)cc3n2)cc1", "note": "[WO2022098806, Compound 2-28]", "IC50": 0.15}
{"smiles": "CC(=O)N1CCC[C@H]1c1ccc(Nc2ncc3c(N)c(F)c(-c4cnc5c(c4C)NCCO5)cc3n2)cc1", "note": "[WO2022098806, Compound 2-29]", "IC50": 0.27}
{"smiles": "CC(=O)NCc1ccc(Nc2ncc3c(N)c(F)c(-c4cnc5c(c4C)NCCO5)cc3n2)cc1", "note": "[WO2022098806, Compound 2-30]", "IC50": 0.08}
{"smiles": "Cc1c(-c2cc3nc(Nc4cccc(S(=O)(=O)NC(C)(C)C)c4)ncc3c(N)c2F)cnc2c1NCCO2", "note": "[WO2022098806, Compound 2-33]", "IC50": 0.19}
{"smiles": "CNS(=O)(=O)c1cccc(Nc2ncc3c(N)c(F)c(-c4cnc5c(c4C)NCCO5)cc3n2)c1", "note": "[WO2022098806, Compound 2-34]", "IC50": 0.12}
{"smiles": "COc1cc2c(cc1Nc1ncc3c(N)c(F)c(-c4cnc5c(c4C)NCCO5)cc3n1)[C@@H](C)N(C)CC2", "note": "[WO2022098806, Compound 2-35]", "IC50": 0.15}
{"smiles": "COc1cc2c(cc1Nc1ncc3c(N)c(F)c(-c4cnc5c(c4C)NCCO5)cc3n1)[C@H](C)N(C)CC2", "note": "[WO2022098806, Compound 2-36]", "IC50": 0.1}
{"smiles": "Cc1c(-c2cc3nc(Nc4ccc5c(c4)C(C)(C)OC5=O)ncc3c(N)c2F)cnc2c1NCCO2", "note": "[WO2022098806, Compound 2-41]", "IC50": 0.08}
{"smiles": "Cc1c(-c2cc3nc(Nc4ccc5c(c4)CN(CC(C)(C)O)C5=O)ncc3c(N)c2F)cnc2c1NCCO2", "note": "[WO2022098806, Compound 2-42]", "IC50": 0.15}
{"smiles": "Cc1c(-c2cc3nc(Nc4ccc5c(c4)CCS5(=O)=O)ncc3c(N)c2F)cnc2c1NCCO2", "note": "[WO2022098806, Compound 2-43]", "IC50": 0.08}
{"smiles": "Cc1ccncc1-c1cc2nc(Nc3ccc(CS(C)(=O)=O)cc3)ncc2c(N)c1F", "note": "[WO2022098806, Compound 2-44]", "IC50": 0.19}
{"smiles": "COc1cc2c(cc1Nc1ncc3c(N)c(F)c(-c4cnc5ncsc5c4)cc3n1)CN(C)CC2", "note": "[WO2022098806, Compound 2-47]", "IC50": 25}
{"smiles": "COc1cc2c(cc1Nc1ncc3c(N)c(F)c(-c4cnc5c(c4C)NCCO5)cc3n1)C(C)N(C)C(C)C2", "note": "(stereo not drawn) [WO2022098806, Compound 2-48]", "IC50": 0.7}
{"smiles": "COc1cc2c(cc1Nc1ncc3c(N)c(F)c(-c4cc5oc(=O)[nH]c5cc4C)cc3n1)CN(C)CC2", "note": "[WO2022098806, Compound 2-49]", "IC50": 10}
{"smiles": "COc1cc([C@@H]2CCN(C)C2=O)ccc1Nc1ncc2c(N)c(F)c(-c3cnc4c(c3C)NCCO4)cc2n1", "note": "[WO2022098806, Compound 2-54]", "IC50": 0.08}
{"smiles": "COc1cc([C@H](C)S(C)(=O)=O)ccc1Nc1ncc2c(N)c(F)c(-c3cnc4c(c3C)NCCO4)cc2n1", "note": "[WO2022098806, Compound 2-55]", "IC50": 1.62}
{"smiles": "COc1cc([C@@H](C)S(C)(=O)=O)ccc1Nc1ncc2c(N)c(F)c(-c3cnc4c(c3C)NCCO4)cc2n1", "note": "[WO2022098806, Compound 2-56]", "IC50": 0.1}
{"smiles": "COc1cc([C@H]2CCN(C)C2=O)ccc1Nc1ncc2c(N)c(F)c(-c3cnc4c(c3C)NCCO4)cc2n1", "note": "[WO2022098806, Compound 2-57]", "IC50": 0.91}
{"smiles": "COC1CC(NC(=O)c2ccc(Nc3ncc4c(N)c(F)c(-c5cnc6c(c5C)NCCO6)cc4n3)cc2)C1", "note": "(stereo not drawn) [WO2022098806, Compound 2-58]", "IC50": 0.08}
{"smiles": "Cc1c(-c2cc3nc(Nc4cc5c(cc4F)CCN(C)C5)ncc3c(N)c2F)cnc2c1NCCO2", "note": "[WO2022098806, Compound 2-59]", "IC50": 0.05}
